The subject of one data set is M. tuberculosis H37Rv. Nature of the data set: Microplate alamar blue assay (MABA), antitubercular activity. Format: cell-based, Mycobacterium tuberculosis. Conditions: 5 days at 37 C, lowest concentration preventing colour change blue to pink; for MIC: Mycobacterium tuberculosis, H37RV, 120 h.
In data set [1] the test system is human lung cancer cell line A549. In words: MTT-based cytotoxicity assay. Format: cell-based. The following applies: for cytotoxicity towards A549 (in words): A549, up to 100 µg/mL, compared to paclitaxel; for IC50: Homo sapiens, A549, MTT, up to 100 µg/mL, average of three independent experiments. On the procedure:
Cellular conversion of MTT [3-(4,5-dimethylthiazo-2-yl)-2,5-diphenyl-tetrazolium bromide] into a formazan product was used to estimate cytotoxic activity (IC50) of some of the compounds against cell-line A549 (lung adenocarcinoma) up to concentrations of 100 µg/mL using 5×10^3cells/well in a 96-well flat-bottom micro plate and maintained at 37 °C in 95% humidity and 5% CO2 for overnight using paclitaxel as the positive control.
Certain therapeutic properties are to be determined to examine the antimycobacterial potential of a drug. Toxicity is one of these criteria.
A general note: Tetrazolium assays rely on reduction of a dye to a coloured formazan, in cell work by metabolically active cells.

Values after ≈ are worked out from the molar mass of the structure shown.

A word on the MIC: it is the lowest concentration that inhibits growth of the organism. A higher MIC goes with a less susceptible organism. One may read the melting point as the temperature of the solid-liquid transition. For `O=CN1N=C(c2ccc(-n3cccc3)cc2)CC1c1ccco1` (stereo not shown) [Compound 4o, (4-(1H-Pyrrol-1-yl)phenyl)-5-(Furan-2-yl)-4,5-Dihydro-1H-pyrazole-1-Carbaldehyde], the melting point is 152 to 154 °C. This compound displayed a minimal inhibitory concentration (MIC) against M. tuberculosis H37Rv of 50 µg/mL (≈ 164 µM).

The compound `O=CN1N=C(c2ccc(-n3cccc3)cc2)CC1c1cccc(Cl)c1Cl` (stereo not shown) [Compound 4c, (4-(1H-pyrrol-1-yl)phenyl)-5-(2,3-Dichlorophenyl)-4,5-Dihydro-1H-Pyrazole-1-Carbaldehyde] had a melting point of 163 to 165 °C. Besides, the minimum inhibitory concentration (MIC) against M. tuberculosis H37Rv was found to be 12.5 µg/mL (≈ 32.5 µM).

As usually defined, the IC50 is the concentration that gives 50% inhibition. High values mean weaker potency, low ones greater potency. Compound `CC(C)c1ccc(C2CC(c3ccc(-n4cccc4)cc3)=NN2C=O)cc1` (stereo not shown) [Compound 4l, (4-(1H-Pyrrol-1-yl)Phenyl)-5-(4-Isopropylphenyl)-4,5-Dihydro-1H-Pyrazole-1-Carbaldehyde] displayed a melting point of 140 to 142 °C. In data set [1], the “cytotoxicity towards A549 (in words)” value is on record as “moderate cytotoxicity” and the half-inhibitory concentration (IC50) turned out to be 71.1 µg/mL (≈ 199 µM). In addition, inhibition of growth in the data set with M. tuberculosis H37Rv (MIC) required 100 µg/mL (≈ 280 µM).

Compound `COc1cccc(C2CC(c3ccc(-n4cccc4)cc3)=NN2C=O)c1` (stereo not shown) [Compound 4h, (4-(1H-Pyrrol-1-yl)Phenyl)-5-(3-Methoxyphenyl)-4,5-Dihydro-1H-Pyrazole-1-Carbaldehyde] yielded a melting point of 158 to 160 °C. In data set [1], the “cytotoxicity towards A549 (in words)” value is “moderate cytotoxicity” and inhibition was half-maximal at 76.5 µg/mL (≈ 222 µM) (IC50). Also, in the data set on M. tuberculosis H37Rv, the “MIC values M. tuberculosis H37Rv” value amounted to 6.25 µg/mL (≈ 18.1 µM) and the minimum inhibitory concentration (MIC) turned out to be 6.25 µg/mL (≈ 18.1 µM).

The compound `O=CN1N=C(c2ccc(-n3cccc3)cc2)CC1c1ccc(F)cc1` (stereo not shown) [Compound 4k, (4-(1H-Pyrrol-1-yl)phenyl)-5-(4-Fluorophenyl)-4,5-Dihydro-1H-Pyrazole-1-Carbaldehyde] returned an MIC against M. tuberculosis H37Rv of 12.5 µg/mL (≈ 37.5 µM).

Compound `O=CN1N=C(c2ccc(-n3cccc3)cc2)CC1c1ccc(Cl)cc1` (stereo not shown) [Compound 4b, (4-(1H-Pyrrol-1-yl) Phenyl)-5-(4-Chlorophenyl)-4,5-Dihydro-1H-Pyrazole-1-Carbaldehyde] returned a melting point of 168 to 170 °C. For the same compound, in data set [1], the “cytotoxicity towards A549 (in words)” value was “moderate cytotoxicity” and the IC50 was determined as 75.6 µg/mL (≈ 216 µM). This compound gave an MIC against M. tuberculosis H37Rv of 12.5 µg/mL (≈ 35.7 µM).

Regarding `[H]/N=C(/N)N[C@H]1[C@H](O)[C@@H](O)[C@H](O[C@@H]2O[C@@H](C)[C@](O)(C=O)[C@H]2O[C@@H]2O[C@@H](CO)[C@H](O)[C@@H](O)[C@@H]2NC)[C@@H](N/C(N)=N\[H])[C@@H]1O` [streptomycin, reference compound], the minimal inhibitory concentration (MIC) against M. tuberculosis H37Rv amounted to 6.25 µg/mL (≈ 10.7 µM).

Consider `Cc1ccc(C2CC(c3ccc(-n4cccc4)cc3)=NN2C=O)cc1` (stereo not shown) [Compound 4f, (4-(1H-pyrrol-1-yl)Phenyl)-5-(p-Tolyl)-4,5-Dihydro-1H-Pyrazole-1-Carbaldehyde], for which the melting point was in the range of 148 to 150 °C. In the data set with M. tuberculosis H37Rv, this compound registered an MIC of 25 µg/mL (≈ 75.9 µM).

The compound `COc1ccc(C2CC(c3ccc(-n4cccc4)cc3)=NN2C=O)c(OC)c1` (stereo not shown) [Compound 4i, (4-(1H-Pyrrol-1-yl)Phenyl)-5-(2,4-Dimethoxyphenyl)-4,5-Dihydro-1H-Pyrazole-1-Carbaldehyde] yielded a melting point of 160 to 162 °C. Besides, in data set [1], the “cytotoxicity towards A549 (in words)” value is listed as “moderate cytotoxicity” and it took 73.3 µg/mL (≈ 195 µM) to reach half-maximal inhibition (IC50). Also, in the data set on M. tuberculosis H37Rv, the “MIC values M. tuberculosis H37Rv” value was 3.125 µg/mL (≈ 8.32 µM) and the MIC amounted to 3.12 µg/mL (≈ 8.32 µM).

In the case of `O=CN1N=C(c2ccc(-n3cccc3)cc2)CC1c1c(Cl)cccc1Cl` (stereo not shown) [Compound 4e, (4-(1H-pyrrol-1-yl)Phenyl)-5-(2,6-Dichlorophenyl)-4,5-Dihydro-1H-Pyrazole-1-Carbaldehyde], the melting point was in the range of 208 to 210 °C. The lowest concentration to inhibit growth in the data set on M. tuberculosis H37Rv (MIC) was 25 µg/mL (≈ 65.1 µM).

On to `NC(=O)c1cnccn1` [pyrazinamide, reference compound], for which, in the data set with M. tuberculosis H37Rv, the minimal inhibitory concentration (MIC) is 3.12 µg/mL (≈ 25.4 µM).

`O=CN1N=C(c2ccc(-n3cccc3)cc2)CC1c1cccc(Br)c1` (stereo not shown) [Compound 4m, (4-(1H-Pyrrol-1-yl)Phenyl)-5-(3-Bromophenyl)-4,5-Dihydro-1H-Pyrazole-1-Carbaldehyde] returned a melting point of 168 to 170 °C. Besides, in data set [1], the “cytotoxicity towards A549 (in words)” value was “moderate cytotoxicity” and the 50% inhibitory concentration (IC50) was found to be 76 µg/mL (≈ 193 µM). Also, in the data set on M. tuberculosis H37Rv, it took 12.5 µg/mL (≈ 31.7 µM) to inhibit growth (MIC).

`COc1ccc(C2CC(c3ccc(-n4cccc4)cc3)=NN2C=O)cc1OC` (stereo not shown) [Compound 4j, (4-(1H-Pyrrol-1-yl) Phenyl)-5-(3,4-Dimethoxyphenyl)-4,5-Dihydro-1H-Pyrazole-1-Carbaldehyde] came in with a melting point of 133 to 135 °C. In data set [1], the “cytotoxicity towards A549 (in words)” value is reported as “moderate cytotoxicity” and the midpoint of inhibition, the IC50, lay at 70.4 µg/mL (≈ 187 µM). Also, in the data set on M. tuberculosis H37Rv, inhibition of growth (MIC) required 12.5 µg/mL (≈ 33.3 µM).

In turn, `O=CN1N=C(c2ccc(-n3cccc3)cc2)CC1c1ccc(Cl)cc1Cl` (stereo not shown) [Compound 4d, (4-(1H-pyrrol-1-yl)Phenyl)-5-(2,4-Dichlorophenyl)-4,5-Dihydro-1H-Pyrazole-1-Carbaldehyde] came in with a melting point of 228 to 230 °C. For the same compound, in the data set on M. tuberculosis H37Rv, the lowest concentration to inhibit growth (MIC) was 25 µg/mL (≈ 65.1 µM).

Turning to `O=CN1N=C(c2ccc(-n3cccc3)cc2)CC1c1cccc(Oc2ccccc2)c1` (stereo not shown) [Compound 4n, (4-(1H-pyrrol-1-yl)Phenyl)-5-(3-Phenoxyphenyl)-4,5-Dihydro-1H-Pyrazole-1-Carbaldehyde], the melting point lay in the range of 128 to 130 °C. Also, in data set [1], the “cytotoxicity towards A549 (in words)” value is “moderate cytotoxicity” and the IC50 is 72.9 µg/mL (≈ 179 µM). Moreover, the MIC against M. tuberculosis H37Rv worked out at 12.5 µg/mL (≈ 30.7 µM).

The compound `COc1ccc(C2CC(c3ccc(-n4cccc4)cc3)=NN2C=O)cc1` (stereo not shown) [Compound 4g, (4-(1H-pyrrol-1-yl)phenyl)-5-(4-Methoxyphenyl)-4,5-Dihydro-1H-Pyrazole-1-Carbaldehyde] returned a melting point of 112 to 114 °C. Moreover, in the data set on M. tuberculosis H37Rv, the “MIC values M. tuberculosis H37Rv” value is 6.25 µg/mL (≈ 18.1 µM) and it took 6.25 µg/mL (≈ 18.1 µM) to inhibit growth (MIC).

In the case of `O=CN1N=C(c2ccc(-n3cccc3)cc2)CC1c1ccccc1` (stereo not shown) [Compound 4a, 3-(4-(1H-Pyrrol-1-yl) Phenyl)-5-Phenyl-4,5-Dihydro-1H-Pyrazole-1-Carbaldehydes], the melting point fell in the range of 178 to 180 °C. For the same compound, it took 100 µg/mL (≈ 317 µM) to inhibit growth with M. tuberculosis H37Rv (MIC).

In turn, `CC(=O)O[C@H]1C(=O)[C@@]2(C)[C@H]([C@H](OC(=O)c3ccccc3)[C@]3(O)C[C@H](OC(=O)[C@H](O)[C@@H](NC(=O)c4ccccc4)c4ccccc4)C(C)=C1C3(C)C)[C@]1(OC(C)=O)CO[C@@H]1C[C@@H]2O` [paclitaxel, reference compound] came in with an IC50 in data set [1] of 47.6 µg/mL (≈ 55.8 µM).

Values taken from article PMC5676022, “Pyrrolyl Pyrazoline Carbaldehydes as Enoyl-ACP Reductase Inhibitors: Design, Synthesis and Antitubercular Activity” (The Open Medicinal Chemistry Journal, 2017).
